Data published in PubChem BioAssay (NCI).
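Protocol summary: plate cells (96-well), add compound at 5 concentrations, incubate 48 h, interpolate endpoints linearly. The concentration for 50% growth inhibition is given as GI50. TGI marks complete inhibition of growth.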

Tests used:
Experiment in all cases: inhibition of tumour cell growth, NCI panel, 48 h
OVCAR-3 ovarian = system: OVCAR-3 ovarian
SK-MEL-2 melanoma = system: SK-MEL-2 melanoma
M14 melanoma = system: M14 melanoma
EKVX NSCLC = system: EKVX NSCLC
U251 CNS = system: U251 CNS
BT-549 breast = system: BT-549 breast
SNB-19 CNS = system: SNB-19 CNS
SN12C renal = system: SN12C renal
K-562 leukemia = system: K-562 leukemia
RPMI-8226 leukemia = system: RPMI-8226 leukemia
UACC-257 melanoma = system: UACC-257 melanoma
MALME-3M melanoma = system: MALME-3M melanoma
OVCAR-5 ovarian = system: OVCAR-5 ovarian
SF-268 CNS = system: SF-268 CNS
SF-539 CNS = system: SF-539 CNS
MOLT-4 leukemia = system: MOLT-4 leukemia
RXF 393 renal = system: RXF 393 renal
A549 NSCLC = system: A549 NSCLC
LOX IMVI melanoma = system: LOX IMVI melanoma
NCI-H23 lung = system: NCI-H23 lung
TK-10 renal = system: TK-10 renal
MCF7 breast = system: MCF7 breast
UACC-62 melanoma = system: UACC-62 melanoma
HCT-116 colon = system: HCT-116 colon
HS 578T breast = system: HS 578T breast
HL-60(TB) leukemia = system: HL-60(TB) leukemia
IGROV1 ovarian = system: IGROV1 ovarian
SK-MEL-5 melanoma = system: SK-MEL-5 melanoma
A498 renal = system: A498 renal
HCT-15 colon = system: HCT-15 colon
SW-620 colon = system: SW-620 colon
HT29 colon = system: HT29 colon
KM12 colon = system: KM12 colon
786-0 renal = system: 786-0 renal
PC-3 prostate = system: PC-3 prostate
CCRF-CEM leukemia = system: CCRF-CEM leukemia
DU-145 prostate = system: DU-145 prostate
SK-OV-3 ovarian = system: SK-OV-3 ovarian
ACHN renal = system: ACHN renal
HCC-2998 colon = system: HCC-2998 colon
HOP-62 NSCLC = system: HOP-62 NSCLC
SK-MEL-28 melanoma = system: SK-MEL-28 melanoma
UO-31 renal = system: UO-31 renal
NCI-H522 lung = system: NCI-H522 lung
SNB-75 CNS = system: SNB-75 CNS
NCI/ADR-RES ovarian = system: NCI/ADR-RES ovarian
T-47D breast = system: T-47D breast
CAKI-1 renal = system: CAKI-1 renal
OVCAR-8 ovarian = system: OVCAR-8 ovarian
NCI-H226 lung = system: NCI-H226 lung
HOP-92 NSCLC = system: HOP-92 NSCLC
COLO 205 colon = system: COLO 205 colon
SF-295 CNS = system: SF-295 CNS
MDA-MB-435 = system: MDA-MB-435
OVCAR-4 ovarian = system: OVCAR-4 ovarian
NCI-H460 lung = system: NCI-H460 lung
MDA-MB-231 breast = system: MDA-MB-231 breast

In the case of `COc1cc2c(/C=C3/C(=O)Nc4cccc(Cl)c43)c(Cl)n(Cc3ccccc3)c2cc1C`, the GI50 (OVCAR-3 ovarian) is reported as 8.84 µM, the TGI (OVCAR-3 ovarian) is reported as 25.2 µM and the GI50 (SK-MEL-2 melanoma) is reported as 11 µM. For the same molecule, the TGI (SK-MEL-2 melanoma) was 68.2 µM, the GI50 (M14 melanoma) was 4.79 µM and the TGI (M14 melanoma) was > 40.5 µM. For the same molecule, the GI50 (EKVX NSCLC) was 6.84 µM, the TGI (EKVX NSCLC) was > 26.4 µM and the GI50 (U251 CNS) was 2.46 µM. The TGI (U251 CNS) was 20.6 µM, the GI50 (BT-549 breast) was 6.98 µM and the TGI (BT-549 breast) was 29.1 µM. The GI50 (SNB-19 CNS) was 9.07 µM, the TGI (SNB-19 CNS) was > 100 µM and the GI50 (SN12C renal) was 6.18 µM. The TGI (SN12C renal) was > 35 µM, the GI50 (K-562 leukemia) was 5.22 µM and the TGI (K-562 leukemia) was > 100 µM. The GI50 (RPMI-8226 leukemia) was 4.21 µM, the TGI (RPMI-8226 leukemia) was > 23.6 µM and the GI50 (UACC-257 melanoma) was 10.4 µM. For the same molecule, the TGI (UACC-257 melanoma) was > 78.8 µM, the GI50 (MALME-3M melanoma) was 14.2 µM and the TGI (MALME-3M melanoma) was 41.4 µM. For the same molecule, the GI50 (OVCAR-5 ovarian) was 24.4 µM, the TGI (OVCAR-5 ovarian) was > 71.4 µM and the GI50 (SF-268 CNS) was 13.1 µM. The TGI (SF-268 CNS) was > 71.5 µM, the GI50 (SF-539 CNS) was 3.78 µM and the TGI (SF-539 CNS) was > 100 µM. The GI50 (MOLT-4 leukemia) was 3.7 µM, the TGI (MOLT-4 leukemia) was > 100 µM and the GI50 (RXF 393 renal) was 5.05 µM. The TGI (RXF 393 renal) was > 29 µM, the GI50 (A549 NSCLC) was 4.76 µM and the TGI (A549 NSCLC) was > 100 µM. The GI50 (LOX IMVI melanoma) was 4.42 µM, the TGI (LOX IMVI melanoma) was 23.7 µM and the GI50 (NCI-H23 lung) was 4.59 µM. For the same molecule, the TGI (NCI-H23 lung) was 15 µM, the GI50 (TK-10 renal) was 10.4 µM and the TGI (TK-10 renal) was > 76.2 µM. For the same molecule, the GI50 (MCF7 breast) was 3.88 µM, the TGI (MCF7 breast) was > 45.3 µM and the GI50 (UACC-62 melanoma) was 1.67 µM. The TGI (UACC-62 melanoma) was 24.1 µM, the GI50 (HCT-116 colon) was 4.19 µM and the TGI (HCT-116 colon) was 55.6 µM. The GI50 (HS 578T breast) was 4.34 µM, the TGI (HS 578T breast) was 66.5 µM and the GI50 (HL-60(TB) leukemia) was 5.22 µM. The TGI (HL-60(TB) leukemia) was > 100 µM, the GI50 (IGROV1 ovarian) was 7.42 µM and the TGI (IGROV1 ovarian) was > 100 µM. For the same molecule, the GI50 (SK-MEL-5 melanoma) was 2.17 µM, the TGI (SK-MEL-5 melanoma) was 11.5 µM and the GI50 (A498 renal) was 0.528 µM. It also gave a TGI (A498 renal) of 9.03 µM, a GI50 (HCT-15 colon) of 3.12 µM and a TGI (HCT-15 colon) of 31.3 µM. For the same molecule, the GI50 (SW-620 colon) was 6.11 µM, the TGI (SW-620 colon) was > 100 µM and the GI50 (HT29 colon) was 4.99 µM. The TGI (HT29 colon) was > 100 µM, the GI50 (KM12 colon) was 2.46 µM and the TGI (KM12 colon) was 17.9 µM. The GI50 (786-0 renal) was 3.59 µM, the TGI (786-0 renal) was 26.7 µM and the GI50 (PC-3 prostate) was 4.29 µM. The TGI (PC-3 prostate) was > 38 µM, the GI50 (CCRF-CEM leukemia) was 4.83 µM and the TGI (CCRF-CEM leukemia) was > 100 µM. The GI50 (DU-145 prostate) was 11.2 µM, the TGI (DU-145 prostate) was > 100 µM and the GI50 (SK-OV-3 ovarian) was 7.24 µM. For the same molecule, the TGI (SK-OV-3 ovarian) was > 74.8 µM, the GI50 (ACHN renal) was 3.58 µM and the TGI (ACHN renal) was 33.3 µM. It also gave a GI50 (HCC-2998 colon) of 3.1 µM, a TGI (HCC-2998 colon) of 8.99 µM and a GI50 (HOP-62 NSCLC) of 9.73 µM. For the same molecule, the TGI (HOP-62 NSCLC) was 53.9 µM, the GI50 (SK-MEL-28 melanoma) was 4.98 µM and the TGI (SK-MEL-28 melanoma) was 43.7 µM. The GI50 (UO-31 renal) was 5.69 µM, the TGI (UO-31 renal) was > 100 µM and the GI50 (NCI-H522 lung) was 4.46 µM. For the same molecule, the TGI (NCI-H522 lung) was > 82.2 µM, the GI50 (SNB-75 CNS) was 21.1 µM and the TGI (SNB-75 CNS) was > 100 µM. For the same molecule, the GI50 (NCI/ADR-RES ovarian) was 2.76 µM, the TGI (NCI/ADR-RES ovarian) was 12 µM and the GI50 (T-47D breast) was 14 µM. For the same molecule, the TGI (T-47D breast) was > 100 µM, the GI50 (CAKI-1 renal) was 2.46 µM and the TGI (CAKI-1 renal) was 31.4 µM. The GI50 (OVCAR-8 ovarian) was 5.21 µM, the TGI (OVCAR-8 ovarian) was > 71.9 µM and the GI50 (NCI-H226 lung) was 1.78 µM. For the same molecule, the TGI (NCI-H226 lung) was 11.1 µM, the GI50 (HOP-92 NSCLC) was 44.9 µM and the TGI (HOP-92 NSCLC) was > 100 µM. The GI50 (COLO 205 colon) was 2.94 µM, the TGI (COLO 205 colon) was 21.8 µM and the GI50 (SF-295 CNS) was 2.11 µM. For the same molecule, the TGI (SF-295 CNS) was 21.2 µM, the GI50 (MDA-MB-435) was 1.11 µM and the TGI (MDA-MB-435) was 5.82 µM. For the same molecule, the GI50 (OVCAR-4 ovarian) was 7.73 µM, the TGI (OVCAR-4 ovarian) was > 100 µM and the GI50 (NCI-H460 lung) was 5.46 µM. The TGI (NCI-H460 lung) was > 56.3 µM, the GI50 (MDA-MB-231 breast) was 3.38 µM and the TGI (MDA-MB-231 breast) was 24.4 µM.
